Source: patent publication US20050257280A1, “Nonhuman model animal nonresponsive to endotoxin and lipoprotein or lipopeptide” (priority 2002, published 2005)

Columns and labels:
Format in all cases: cell-based, mouse
IFN-β mRNA = assay: Expression of IFN-β mRNA in peritoneal macrophages (Northern blot); conditions: stimulated 4 hr and 8 hr
Description: IL-6, TNF-α and IL-12 in the culture supernatant were measured using mycoplasmal lipopeptide MALP-2 being TLR2 ligand (synthesized and purified as described in Takeuchi-MALP) and Staphylococcus aureus peptidoglycan (PGN) (Fluka) at various concentrations (FIG. 9). […] Next, peritoneal macrophages of wild-type and TIRAP^−/− mice were stimulated with Poly I:C being TLR3 ligand (Amersham) for 4 hr and 8 hr. Total RNA was extracted, and the expression of IFN-β mRNA was analyzed by Northern blot method. At that time, 18S ribosomal RNA was used as control. Expression of IFN-β mRNA was induced in both wild-type and TIRAP^−/− mice (FIG. 10).

IRAK-1 = IRAK-1 in vitro kinase assay on lysates of stimulated peritoneal macrophages
Description: IRAK-1 is activated in the downstream of MyD88. […] In vitro kinase assay was conducted as described previously (Sato et al. II), and kinase activation of IRAK-1 was measured. The same lysates were blotted with anti-IRAK-1 antibody, and the effect of IRAK-1 was analyzed (FIG. 13).

ERK1/2, JNK and p38 = assay: Activation of MAP kinases in peritoneal macrophages (Western blot); conditions: LPS 100 ng/ml, MALP-2 3 ng/ml, R848 100 nM, 10 min and 20 min
Description: Next, peritoneal macrophages from wild-type and TIRAP^−/− mice were stimulated with 100 ng/ml of LPS, 3 ng/ml of MALP-2, and 100 nM of R848 for 10 min and 20 min, respectively. The cells were then lysed in the lysis buffer containing 1.0% Nonidet P-40, 150 mM NaCl, 20 mM tris-C1 (pH 7.5), 5 mM EDTA and protease inhibitor cocktail (Roche). The cell lysates were dissolved by SDS-PAGE and transferred onto a PVDF membrane (BioRad). The above-mentioned PVDF membrane was blotted with […] specific to ERK1/2, JNK, and p38 (Santa Cruz), and […] specific to phosphorylated ERK 1/2, phosphorylated JNK, and phosphorylated p38 (Cell Signaling) and Western blot analysis was conducted by visualizing with an enhanced chemiluminescence system (NEN Life Science Product) (FIG. 12). […] The result is quite similar to those observed in MyD88^−/− mice (Kawai et al.: Immunity 11: 115-22; 1999).

[1] = test system: splenocytes from wild-type and TIRAP−/− mice; assay: Proliferation of splenocytes in the presence of IL-1, PHA or both ([3H]-thymidine uptake); conditions: 100 U/ml IL-1β, 10 ng/ml PHA, 72 hr + 12 hr
Source text: As shown in MyD88-, TRAF6-, and IRAK-4-deficient mice, signaling pathway via IL-1 receptor family utilizes the same signaling pathway as that of TLRs (Adachi et. al., Immunity. 9, 143-150, 1998; Lomaga et al., Gene Dev. 13, 1015-24, 1999; Naito et al., Gene Cells 4, 353-62, 1999; Suzuki et al., Nature 416, 750-56, 2002). To investigate the proliferation of splenocytes from TIRAP^−/− mice induced by IL-1 or Phytohemagglutinin (PHA) being co-stimulatory substance with IL-1, splenocytes from wild-type and TIRAP^−/− mice were cultured for 72 hr and proliferated in the presence of 100 U/ml of IL-1β, and of 10 ng/ml of PHA, and in the co-presence of IL-1β and PHA, then supplemented with 1 μCi of [^3H]-thymidine, further cultured for 12 hr, and measured the uptake of [^3H] with a β scintillation counter. Proliferation of splenocytes was determined by measuring the [^3H] level of [^3H] thymidine ingested into a cell.

[2] = test system: peritoneal macrophages from wild-type and TIRAP−/− mice; assay: Inflammatory cytokine production of peritoneal macrophages (ELISA of culture supernatant); conditions: LPS 1 ng/ml 24 hr, MALP-2 and PGN at various concentrations
Description: Next, LPS-induced inflammatory cytokine production of peritoneal macrophages from wild-type and TIRAP^−/− mice was analyzed. 2 ml of 4% thioglycollate medium (DIFCO) were intraperitoneally injected into TIRAP^−/− and wild-type mice, respectively. Three days later, peritoneal exudate cells were isolated from peritoneal cavity of each mouse. The cells were cultured for 2 hr at 37° C. in RPMI 1640 medium (GIBCO) supplemented with 10% fetal bovine serum (GIBCO), nonadherent cells were removed by washing with Hank's buffered salt solution: HBSS; GIBCO) at ice temperature, and adherent cells were used as peritoneal macrophages. Each obtained peritoneal macrophage was cultured with 1 ng/ml of Re-595 LPS for 24 hr, and concentration of IL-6, TNF-α and IL-12 in the culture supernatant was measured according to a common procedure by ELISA (FIG. 7; means±SD of triplicates, N.D. Not detected).
IL-6, TNF-α and IL-12 in the culture supernatant were measured using mycoplasmal lipopeptide MALP-2 being TLR2 ligand (synthesized and purified as described in Takeuchi-MALP) and Staphylococcus aureus peptidoglycan (PGN) (Fluka) at various concentrations (FIG. 9). […] Next, peritoneal macrophages of wild-type and TIRAP^−/− mice were stimulated with Poly I:C being TLR3 ligand (Amersham) for 4 hr and 8 hr. Total RNA was extracted, and the expression of IFN-β mRNA was analyzed by Northern blot method. […]

NF-κB = NF-κB DNA binding in nuclear extracts of peritoneal macrophages (EMSA); conditions: LPS 100 ng/ml, MALP-2 3 ng/ml, R-848 10 nM
[3] = TIRAP−/− peritoneal macrophages
[4] = wild-type peritoneal macrophages

Molecule | autophosphorylation (Auto) of IRAK-1 (IRAK-1; TIRAP−/− macrophages) | autophosphorylation (Auto) of IRAK-1 (IRAK-1; wild-type macrophages) | phosphorylation/activation of ERK1/2, JNK and p38 (ERK1/2, JNK and p38; wild-type macrophages) | proliferation of splenocytes (uptake of [3H]-thymidine) ([1]; TIRAP−/− splenocytes) | proliferation of splenocytes (uptake of [3H]-thymidine) ([1]; wild-type splenocytes) | other results
Poly I:C |  |  |  |  |  | expression of IFN-β mRNA (IFN-β mRNA; [3]): induced; expression of IFN-β mRNA (IFN-β mRNA; [4]): induced
CCOCc1nc2c(N)nc3ccccc3c2n1CC(C)(C)O [R-848] | autophosphorylation was induced | induced autophosphorylation | phosphorylated and activation was induced |  |  | 
Phytohemagglutinin [PHA] |  |  |  | enhanced proliferation | enhanced proliferation | 
MALP-2 | not observed | induced autophosphorylation | phosphorylated and activation was induced |  |  | production of IL-6, TNF-α and IL-12 [2, 3]: severely impaired; production of IL-6, TNF-α and IL-12 [2, 4]: dose-dependent production; NF-κB DNA binding effect (NF-κB; TIRAP−/− macrophages, LPS at 10 min): significantly inhibited; NF-κB DNA binding effect (NF-κB; wild-type macrophages, LPS and MALP-2 at 10 min): observed; phosphorylation/activation of ERK1/2, JNK and p38 (ERK1/2, JNK and p38; TIRAP−/− macrophages): not observed
IL-1: Interleukin-1 cytokine, used as IL-1β at 100 U/ml |  |  |  | enhanced proliferation | enhanced proliferation | 
